Here are results for 15 compounds from patent publication US5300672A (priority 1992, dated 1994).

The test system of assay [1] is Erysiphe graminis (f. sp. tritici). Briefly: whole plant or invertebrate. In kind it is in vivo. As to conditions: Blumeria graminis; read-out: % Control WPM.
Assay [2] has as its system Puccinia recondita (f. sp. tritici Races PKB and PLD). As to the kind of experiment: whole plant or invertebrate. In kind it is in vivo. As to conditions: Puccinia recondita, 240 h; read-out: % Control WLR.
Assay [3] concerns Pseudoperonospora cubensis. Briefly: whole plant or invertebrate. In kind it is in vivo. Conditions: Pseudoperonospora cubensis, in Cucumis sativus, 168 h; read-out: % Control CDM.
Another assay deals with Piricularia oryzae. As to the kind of experiment: whole plant or invertebrate. The assay is classed as in vivo. As to conditions: Pyricularia oryzae.
The next assay concerns Pseudomonas fluorescens. Briefly: Alternate Minimum Inhibitory Concentrations Test (Table 4), Ps.fl. In kind it is cell-based. Conditions: Table 4 alternate test; for MIC: Pseudomonas fluorescens, read-out: MIC Ps.fl; for MIC Ps.fl (I = inactive): class symbol. The method, then:
The compounds of Examples 1-8, 12-26, 28-33, 36-37, 39-42, 44-109, 111-114, and 116-120 were subjected also to the following alternate biocidal activity test procedures with the results as indicated in Table 4.
The MIC test measures the viability of Pseudomonas fluorescens inoculum in TSB when exposed for 72 hours to varying concentrations of test compound.
A 125 μl aliquot of 10,000 ppm test compound in acetone was added to 4.88 ml of TSB to provide a 250 ppm solution. From this solution, 100 μL was transferred to the first row of two microtiter plate columns. Both replicates and five additional compounds were all serially diluted 1:1 to a final concentration of 0.8 ppm in TSB.
Inoculation was accomplished by diluting a 24 hr Ps fl culture, four mls per 36 mls of phosphate buffer solution. A Dynatech autoinoculator was used to transfer 1.5 μl of this cell suspension to the microtiter plates. The plates were incubated at 30° C. for 3 days before the lowest concentration at which no growth occurs was recorded in the database.

The test system of a further assay is Phytophthora infestans. As to the kind of experiment: whole plant or invertebrate. The assay is classed as in vivo. Conditions: Phytophthora infestans, in Solanum lycopersicum, 96 h.
Assay [4] deals with Pellicularia filamentosa (f. sp. sasiki). As to the kind of experiment: whole plant or invertebrate. In kind it is in vivo.
Setting [5] is: read-out: % Control RB, application rate 200 ppm.
The mark [6] stands for this setting: 250 ppm to 0.8 ppm in TSB, 72 hours, 30° C.
Where [7] appears, read: read-out: % Control TLB, application rate 200 ppm.

Structures are written as SMILES. Read-outs that look alike come from different tables or passages of the source. Bounds are passed on as bounds.

As for `CCCCCCCCNC(=O)/C=C\SC(=O)c1ccc(OCCCCCCC)cc1` [Compound 45, N-octyl-cis-3-[(4-heptoxybenzoyl)thio]acrylamide], the pest or weed control at 200 ppm in assay [1] is 0%; in assay [2], 0%; in assay [3], 0%; with Piricularia oryzae (setting [5]), 0%; with Phytophthora infestans (setting [7]) it was 0%; in assay [4] (120 h, read-out: % Control RSB), 80%. Moreover, the MIC (as a rule, the lowest concentration that inhibits growth of the organism) with Pseudomonas fluorescens (setting [6]) is over 250 µg/mL.

As to `CCCCCCCCNC(=O)/C=C\SC(=O)CC1CC(C(C)=O)C1(C)C` (stereo not drawn) [Compound 75], the pest or weed control at 200 ppm in assay [1] stood at 0%; in assay [2], 50%; in assay [3] it was 0%; with Piricularia oryzae (setting [5]), 50%. Also, the MIC in the assay on Pseudomonas fluorescens (setting [6]) was over 250 µg/mL. The pest or weed control at 50 ppm with Phytophthora infestans (read-out: % Control TLB) was determined as 90%. Further, in assay [4] (120 h, read-out: % Control RSB), the pest or weed control at 12 ppm was found to be 0%.

Regarding `CCCCCCCCNC(=O)/C=C\SC(=O)c1c[nH]c2ccccc12` [Compound 77, N-octyl-cis-3-[(3-indole)carbonylthio]acrylamide], the pest or weed control at 200 ppm in assay [1] came out at 0%; in assay [2], 80%; in assay [3], 85%; in the assay with Piricularia oryzae (setting [5]), 90%; in the assay with Phytophthora infestans (read-out: % Control TLB), 90%; in assay [4] (120 h, read-out: % Control RSB) it was 0%. Further, the MIC in the assay with Pseudomonas fluorescens (setting [6]) is over 250 µg/mL.

On to `C=CCCC(=O)S/C=C\C(=O)NCCCCCCCC` [Compound 83, N-octyl-cis-3-[(4-pentenoyl)thio]acrylamide], for which the pest or weed control at 200 ppm was determined as 0% in assay [1]; 50% in assay [2]; 95% in assay [3]; 50% in the assay on Piricularia oryzae (setting [5]); 90% in the assay with Phytophthora infestans (read-out: % Control TLB); 0% in assay [4] (120 h, read-out: % Control RSB). Besides, the MIC in the assay on Pseudomonas fluorescens (setting [6]) is over 250 µg/mL.

As for `CC/C=C/C(=O)S/C=C\C(=O)NCCCCCCCC` [Compound 84, N-octyl-cis-3-[(trans-2-pentenoyl)thio]acrylamide], the pest or weed control at 200 ppm in assay [1] is 0%; in assay [2], 50%; in assay [3], 0%; with Piricularia oryzae (setting [5]), 0%; with Phytophthora infestans (read-out: % Control TLB), 90%; in assay [4] (120 h, read-out: % Control RSB), 0%. Also, in the assay with Pseudomonas fluorescens (setting [6]), the MIC was over 250 µg/mL.

On to `CCCCCCCCNC(=O)/C=C\SC(=O)CCCC(=O)OC` [Compound 85, N-octyl-cis-3-[(4-methoxycarbonylbutanoyl)thio]acrylamide], for which the pest or weed control at 200 ppm in assay [1] is 0%; in assay [2], 80%; in assay [3], 70%; with Piricularia oryzae (setting [5]), 90%; with Phytophthora infestans (read-out: % Control TLB) it was 90%; in assay [4] (120 h, read-out: % Control RSB) it was 0%. Moreover, in the assay with Pseudomonas fluorescens (setting [6]), the MIC is over 250 µg/mL.

On to `CC(=O)S/C=C\C(=O)NC1CCCCCCCCCCC1` [Compound 90, N-cyclododecyl-cis-3-(acetylthio)acrylamide], for which, in assay [1], the pest or weed control at 50 ppm worked out at 0%. Also, the pest or weed control at 200 ppm in assay [2] came to 0%; in assay [3] it was 85%; with Piricularia oryzae (setting [5]), 0%; in the assay with Phytophthora infestans (setting [7]) it was 0%; in assay [4] (120 h, read-out: % Control RSB), 0%. Further, in the assay on Pseudomonas fluorescens (setting [6]), the MIC was over 250 µg/mL.

Consider `CCCCCCCCNC(=O)/C=C\SC(=O)CCc1ccccc1` [Compound 91, N-octyl-cis-3-[(3-phenylpropanoyl)thio]acrylamide], for which the pest or weed control at 12 ppm in assay [1] was determined as 85%. Moreover, the pest or weed control at 200 ppm in assay [2] was 25%; in assay [3], 70%; in the assay with Piricularia oryzae (read-out: % Control RB), 70%; in the assay with Phytophthora infestans (read-out: % Control TLB), 80%. Also, the “MIC Ps.fl” value against Pseudomonas fluorescens (setting [6]) is over 250 Ppm. Further, in assay [4] (in vivo), the “% Control RSB” value was determined as 0 % Control.

As to `CCCCC/C=C/C(=O)S/C=C\C(=O)NCCCCCCCC` [Compound 92, N-octyl-cis-3-[(trans-2-octenoyl)thio]acrylamide], the pest or weed control at 50 ppm in assay [1] and in assay [2] was 50% throughout. The pest or weed control at 200 ppm in assay [3] came out at 85%; in the assay on Piricularia oryzae (read-out: % Control RB), 70%; with Phytophthora infestans (read-out: % Control TLB), 90%; in assay [4] (120 h, read-out: % Control RSB), 0%. Besides, the MIC in the assay with Pseudomonas fluorescens (setting [6]) was over 250 µg/mL.

With `CCCCCCCCNC(=O)/C=C\SC(=O)/C=C/C=C/c1ccccc1` [Compound 109, N-octyl-cis-3-[(trans,trans-5-phenyl-2,4-pentadienoyl)thio]acrylamide], the pest or weed control at 200 ppm in assay [1] was 0%; in assay [2], 0%; in assay [3] it was 50%; in the assay on Piricularia oryzae (setting [5]), 0%; in the assay on Phytophthora infestans (setting [7]) it was 0%. Also, the MIC in the assay on Pseudomonas fluorescens (setting [6]) is over 250 µg/mL.

Consider `CCCCCCCCNC(=O)/C=C\SC(=O)c1ccc(Br)o1` [Compound 111, N-octyl-cis-3-[(5-bromo-2-furoyl)thio]acrylamide], for which the pest or weed control at 200 ppm in assay [1] is 0%; in assay [2] it was 0%; in assay [3] it was 85%; in the assay with Piricularia oryzae (setting [5]) it was 0%; in the assay on Phytophthora infestans (read-out: % Control TLB), 80%. Besides, the MIC in the assay with Pseudomonas fluorescens (setting [6]) was over 250 µg/mL.

Regarding `CCCCCCCCNC(=O)/C=C\SC(=O)CCCCCCCC(=O)OC` [Compound 117, N-octyl-cis-3-[(8-methoxycarbonyloctanoyl)thio]acrylamide], the pest or weed control at 200 ppm (in assay [1]; in assay [2]; with Piricularia oryzae (setting [5]); in the assay with Phytophthora infestans (setting [7])) was 0% in each case. Also, the pest or weed control at 50 ppm in assay [3] was 95%. In addition, the “MIC Ps.fl (I = inactive)” value in the assay with Pseudomonas fluorescens is on record as “I”.

As to `CCCCCCCCNC(=O)/C=C\SC(=O)CCCCC(=O)OC` [Compound 118, N-octyl-cis-3-[(5-methoxycarbonylpentanoyl)thio]acrylamide], the pest or weed control at 200 ppm worked out at 0% in assay [1]; 0% in assay [2]; 100% in assay [3]; 75% in the assay on Piricularia oryzae (setting [5]); 90% in the assay with Phytophthora infestans (read-out: % Control TLB). For the same compound, the “MIC Ps.fl (I = inactive)” value against Pseudomonas fluorescens is recorded as “I”.

Consider `CCCCCCCCNC(=O)/C=C\SC(=O)CCCCCCCCC(=O)OC` [Compound 119, N-octyl-cis-3-[(9-methoxycarbonylnonanoyl)thio]acrylamide], for which the pest or weed control at 200 ppm came out at 0% in assay [1]; 0% in assay [2]; 70% in assay [3]; 50% with Piricularia oryzae (setting [5]); 80% in the assay with Phytophthora infestans (read-out: % Control TLB). For the same compound, the “MIC Ps.fl (I = inactive)” value with Pseudomonas fluorescens was “I”.

For the compound `CCCCCCCCNC(=O)/C=C\SC(=O)CCCOc1ccccc1` [Compound 120, N-octyl-cis-3-[(4-phenoxybutanoyl)thio]acrylamide], the pest or weed control at 200 ppm in assay [1] is 0%; in assay [2], 0%; in assay [3], 90%; in the assay on Piricularia oryzae (setting [5]), 0%. For the same compound, the “MIC Ps.fl (I = inactive)” value against Pseudomonas fluorescens is “I”. Moreover, the pest or weed control at 50 ppm in the assay with Phytophthora infestans (read-out: % Control TLB) is 80%.
